Results: PubChem BioAssay (NCI)
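All cell lines were grown in 96-well plates and treated with compound for 48 hours. GI50 marks 50% less growth. TGI denotes the concentration required for complete inhibition of growth.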

What was measured:
Assay in all cases: NCI-60 cell line screen, 48 h
SNB-19 CNS = test system: SNB-19 CNS
KM12 colon = test system: KM12 colon
HCT-116 colon = test system: HCT-116 colon
MOLT-4 leukemia = test system: MOLT-4 leukemia
MDA-MB-435 = test system: MDA-MB-435
SK-MEL-5 melanoma = test system: SK-MEL-5 melanoma
UO-31 renal = test system: UO-31 renal
OVCAR-8 ovarian = test system: OVCAR-8 ovarian
NCI-H522 lung = test system: NCI-H522 lung
SNB-75 CNS = test system: SNB-75 CNS
SK-MEL-2 melanoma = test system: SK-MEL-2 melanoma
SR leukemia = test system: SR leukemia
SF-295 CNS = test system: SF-295 CNS
SF-268 CNS = test system: SF-268 CNS
HOP-62 NSCLC = test system: HOP-62 NSCLC
CCRF-CEM leukemia = test system: CCRF-CEM leukemia
EKVX NSCLC = test system: EKVX NSCLC
DU-145 prostate = test system: DU-145 prostate
BT-549 breast = test system: BT-549 breast
OVCAR-3 ovarian = test system: OVCAR-3 ovarian
RPMI-8226 leukemia = test system: RPMI-8226 leukemia
U251 CNS = test system: U251 CNS
HOP-92 NSCLC = test system: HOP-92 NSCLC
MDA-MB-231 breast = test system: MDA-MB-231 breast
SK-OV-3 ovarian = test system: SK-OV-3 ovarian
SN12C renal = test system: SN12C renal
HS 578T breast = test system: HS 578T breast
IGROV1 ovarian = test system: IGROV1 ovarian
RXF 393 renal = test system: RXF 393 renal
M14 melanoma = test system: M14 melanoma
A498 renal = test system: A498 renal
OVCAR-5 ovarian = test system: OVCAR-5 ovarian
ACHN renal = test system: ACHN renal
SW-620 colon = test system: SW-620 colon
NCI-H23 lung = test system: NCI-H23 lung
MCF7 breast = test system: MCF7 breast
HL-60(TB) leukemia = test system: HL-60(TB) leukemia
CAKI-1 renal = test system: CAKI-1 renal
786-0 renal = test system: 786-0 renal
HCC-2998 colon = test system: HCC-2998 colon
UACC-62 melanoma = test system: UACC-62 melanoma
HCT-15 colon = test system: HCT-15 colon
T-47D breast = test system: T-47D breast
COLO 205 colon = test system: COLO 205 colon
K-562 leukemia = test system: K-562 leukemia
SK-MEL-28 melanoma = test system: SK-MEL-28 melanoma
NCI-H460 lung = test system: NCI-H460 lung
OVCAR-4 ovarian = test system: OVCAR-4 ovarian
MALME-3M melanoma = test system: MALME-3M melanoma
A549 NSCLC = test system: A549 NSCLC
TK-10 renal = test system: TK-10 renal
HT29 colon = test system: HT29 colon
NCI-H226 lung = test system: NCI-H226 lung
PC-3 prostate = test system: PC-3 prostate
UACC-257 melanoma = test system: UACC-257 melanoma

Compound: COc1ccc(C2=NN(C(C)=O)C(c3ccc(Oc4ccnc5cc(Cl)ccc45)c(OC)c3)C2)cc1 (centres undefined)
- GI50 (SNB-19 CNS): 26.8 µM
- TGI (SNB-19 CNS): > 100 µM
- GI50 (KM12 colon): > 100 µM
- TGI (KM12 colon): > 100 µM
- GI50 (HCT-116 colon): 2.61 µM
- TGI (HCT-116 colon): > 100 µM
- GI50 (MOLT-4 leukemia): > 100 µM
- TGI (MOLT-4 leukemia): > 100 µM
- GI50 (MDA-MB-435): > 100 µM
- TGI (MDA-MB-435): > 100 µM
- GI50 (SK-MEL-5 melanoma): > 100 µM
- TGI (SK-MEL-5 melanoma): > 100 µM
- GI50 (UO-31 renal): > 100 µM
- TGI (UO-31 renal): > 100 µM
- GI50 (OVCAR-8 ovarian): 3.63 µM
- TGI (OVCAR-8 ovarian): > 100 µM
- GI50 (NCI-H522 lung): 7.57 µM
- TGI (NCI-H522 lung): > 100 µM
- GI50 (SNB-75 CNS): 1.66 µM
- TGI (SNB-75 CNS): 6.16 µM
- GI50 (SK-MEL-2 melanoma): 7.13 µM
- TGI (SK-MEL-2 melanoma): 26.7 µM
- GI50 (SR leukemia): > 100 µM
- TGI (SR leukemia): > 100 µM
- GI50 (SF-295 CNS): 5.02 µM
- TGI (SF-295 CNS): 37.2 µM
- GI50 (SF-268 CNS): 9.28 µM
- TGI (SF-268 CNS): > 100 µM
- GI50 (HOP-62 NSCLC): 3.37 µM
- TGI (HOP-62 NSCLC): 13.1 µM
- GI50 (CCRF-CEM leukemia): > 100 µM
- TGI (CCRF-CEM leukemia): > 100 µM
- GI50 (EKVX NSCLC): 51.7 µM
- TGI (EKVX NSCLC): > 100 µM
- GI50 (DU-145 prostate): > 100 µM
- TGI (DU-145 prostate): > 100 µM
- GI50 (BT-549 breast): 4 µM
- TGI (BT-549 breast): > 100 µM
- GI50 (OVCAR-3 ovarian): 5.4 µM
- TGI (OVCAR-3 ovarian): > 100 µM
- GI50 (RPMI-8226 leukemia): > 100 µM
- TGI (RPMI-8226 leukemia): > 100 µM
- GI50 (U251 CNS): 4.51 µM
- TGI (U251 CNS): 38.4 µM
- GI50 (HOP-92 NSCLC): 3.03 µM
- TGI (HOP-92 NSCLC): 15.4 µM
- GI50 (MDA-MB-231 breast): 7.52 µM
- TGI (MDA-MB-231 breast): > 100 µM
- GI50 (SK-OV-3 ovarian): 6.01 µM
- TGI (SK-OV-3 ovarian): 42.9 µM
- GI50 (SN12C renal): > 100 µM
- TGI (SN12C renal): > 100 µM
- GI50 (HS 578T breast): 5.15 µM
- TGI (HS 578T breast): > 100 µM
- GI50 (IGROV1 ovarian): 6.29 µM
- TGI (IGROV1 ovarian): > 100 µM
- GI50 (RXF 393 renal): 5.04 µM
- TGI (RXF 393 renal): 41 µM
- GI50 (M14 melanoma): 93 µM
- TGI (M14 melanoma): > 100 µM
- GI50 (A498 renal): 15.2 µM
- TGI (A498 renal): 92.2 µM
- GI50 (OVCAR-5 ovarian): > 100 µM
- TGI (OVCAR-5 ovarian): > 100 µM
- GI50 (ACHN renal): 4.03 µM
- TGI (ACHN renal): > 100 µM
- GI50 (SW-620 colon): > 100 µM
- TGI (SW-620 colon): > 100 µM
- GI50 (NCI-H23 lung): 11.9 µM
- TGI (NCI-H23 lung): > 100 µM
- GI50 (MCF7 breast): 29.4 µM
- TGI (MCF7 breast): > 100 µM
- GI50 (HL-60(TB) leukemia): > 100 µM
- TGI (HL-60(TB) leukemia): > 100 µM
- GI50 (CAKI-1 renal): > 100 µM
- TGI (CAKI-1 renal): > 100 µM
- GI50 (786-0 renal): 4.52 µM
- TGI (786-0 renal): 26.8 µM
- GI50 (HCC-2998 colon): > 100 µM
- TGI (HCC-2998 colon): > 100 µM
- GI50 (UACC-62 melanoma): 5.35 µM
- TGI (UACC-62 melanoma): > 100 µM
- GI50 (HCT-15 colon): > 100 µM
- TGI (HCT-15 colon): > 100 µM
- GI50 (T-47D breast): 5.54 µM
- TGI (T-47D breast): 34.9 µM

Compound: COc1ccc2c(c1)C(=O)c1c-2c(N2CCN(C(=O)CCNCCNCCN)CC2)nc2ccccc12
- GI50 (SNB-19 CNS): 15 µM
- TGI (SNB-19 CNS): 39.8 µM
- GI50 (KM12 colon): 4.94 µM
- TGI (KM12 colon): 62.2 µM
- GI50 (COLO 205 colon): 2.54 µM
- TGI (COLO 205 colon): 6.34 µM
- GI50 (K-562 leukemia): 3.33 µM
- TGI (K-562 leukemia): 9.63 µM
- GI50 (HCT-116 colon): 1.85 µM
- TGI (HCT-116 colon): 3.7 µM
- GI50 (MOLT-4 leukemia): 1 µM
- TGI (MOLT-4 leukemia): 2.18 µM
- GI50 (MDA-MB-435): 6.86 µM
- TGI (MDA-MB-435): 30 µM
- GI50 (SK-MEL-5 melanoma): 17.6 µM
- TGI (SK-MEL-5 melanoma): 36.6 µM
- GI50 (UO-31 renal): 10.5 µM
- TGI (UO-31 renal): 30.4 µM
- GI50 (OVCAR-8 ovarian): 19.9 µM
- TGI (OVCAR-8 ovarian): 72.2 µM
- GI50 (NCI-H522 lung): 11.2 µM
- TGI (NCI-H522 lung): 41.1 µM
- GI50 (SNB-75 CNS): 27.8 µM
- TGI (SNB-75 CNS): 51.6 µM
- GI50 (SK-MEL-2 melanoma): 12.4 µM
- TGI (SK-MEL-2 melanoma): 37 µM
- GI50 (SF-295 CNS): 20.8 µM
- TGI (SF-295 CNS): 44.7 µM
- GI50 (SK-MEL-28 melanoma): 2.04 µM
- TGI (SK-MEL-28 melanoma): 3.66 µM
- GI50 (SF-268 CNS): 4.97 µM
- TGI (SF-268 CNS): 20.3 µM
- GI50 (HOP-62 NSCLC): 2.93 µM
- TGI (HOP-62 NSCLC): 7.51 µM
- GI50 (NCI-H460 lung): 2.4 µM
- TGI (NCI-H460 lung): 5.42 µM
- GI50 (OVCAR-4 ovarian): 20.4 µM
- TGI (OVCAR-4 ovarian): 38.3 µM
- GI50 (CCRF-CEM leukemia): 2.85 µM
- TGI (CCRF-CEM leukemia): 7.93 µM
- GI50 (OVCAR-3 ovarian): 16.8 µM
- TGI (OVCAR-3 ovarian): 61.2 µM
- GI50 (RPMI-8226 leukemia): 2.93 µM
- TGI (RPMI-8226 leukemia): 9.71 µM
- GI50 (MALME-3M melanoma): 2.78 µM
- TGI (MALME-3M melanoma): 6.9 µM
- GI50 (HOP-92 NSCLC): 2.44 µM
- TGI (HOP-92 NSCLC): 10.6 µM
- GI50 (A549 NSCLC): 9.51 µM
- TGI (A549 NSCLC): 29.4 µM
- GI50 (MDA-MB-231 breast): 7.25 µM
- TGI (MDA-MB-231 breast): 27.5 µM
- GI50 (SK-OV-3 ovarian): 14.6 µM
- TGI (SK-OV-3 ovarian): 30.6 µM
- GI50 (SN12C renal): 12.2 µM
- TGI (SN12C renal): 38.6 µM
- GI50 (TK-10 renal): 18.4 µM
- TGI (TK-10 renal): 42.1 µM
- GI50 (HS 578T breast): 14.2 µM
- TGI (HS 578T breast): 46.5 µM
- GI50 (IGROV1 ovarian): 5.89 µM
- TGI (IGROV1 ovarian): 32.7 µM
- GI50 (HT29 colon): 2.43 µM
- TGI (HT29 colon): 4.88 µM
- GI50 (M14 melanoma): 2.03 µM
- TGI (M14 melanoma): 3.83 µM
- GI50 (A498 renal): 16.9 µM
- TGI (A498 renal): 33.7 µM
- GI50 (SW-620 colon): 1.86 µM
- TGI (SW-620 colon): 3.65 µM
- GI50 (NCI-H226 lung): 22.6 µM
- TGI (NCI-H226 lung): 78.4 µM
- GI50 (PC-3 prostate): 10.3 µM
- TGI (PC-3 prostate): 25.9 µM
- GI50 (MCF7 breast): 5.11 µM
- TGI (MCF7 breast): 21.6 µM
- GI50 (HL-60(TB) leukemia): 3.03 µM
- TGI (HL-60(TB) leukemia): 6.83 µM
- GI50 (CAKI-1 renal): 18.8 µM
- TGI (CAKI-1 renal): 47.8 µM
- GI50 (UACC-257 melanoma): 3.24 µM
- TGI (UACC-257 melanoma): 9.33 µM
- GI50 (786-0 renal): 2.51 µM
- TGI (786-0 renal): 6.62 µM
- GI50 (UACC-62 melanoma): 22.3 µM
- TGI (UACC-62 melanoma): 55.3 µM
- GI50 (T-47D breast): 3.43 µM
- TGI (T-47D breast): 15.6 µM
